In EP4656185A1, “NOVEL MOLECULAR ASSEMBLY OF AXITINIB” (Scai Therapeutics Co., Ltd., priority 2024, dated 2025):

Experiment: Solubility (dissolution concentration) of axitinib polymorph at pH 1 and pH 2
Assay type: physicochemical
Experimental: Experimental Example 4. Solubility of new axitinib polymorph (SCAI-Form)
Method for measuring solubility at pH 1: Stirred for 15 minutes at a concentration of 5 mg/mL, and then filtered, diluted 10 times with DW, and analyzed. (The value calculated as [measured value x 10] is described in the results)
Method for measuring solubility at pH 2: Stirred for 15 minutes at a concentration of 1 mg/mL, and then filtered, analyzed, and shown in Table 6.

Row | Compound | Dissolution concentration at pH 1 (pH 1, stirred for 15 minutes at 5 mg/mL, filtered, diluted 10 times with DW, value = measured value x 10) | Dissolution concentration at pH 2 (pH 2, stirred for 15 minutes at 1 mg/mL, filtered, analyzed) | solubility of SCAI-Form relative to API (comparison with Axitinib API, from Table 6 (pH 1 and pH 2))
1 | 6-[2-(methylcarbamoyl)phenylsulfanyl]-3-E-[2-(pyridin-2-yl)ethenyl]indazole [API] | 2.661 mg/mL | 0.073 mg/mL | –
2 | CNC(=O)c1ccccc1Sc1ccc2c(/C=C/c3ccccn3)n[nH]c2c1 [SCAI-Form, axitinib] | – | – | about twice higher
